Results published in patent US20240391948A1, “NOVEL COMPOUND THAT INHIBITS TNF-ALPHA GENERATION AND INFLAMMASOME ACTIVITY AND PREPARATION METHOD THEREFOR” (SHAPERON INC., priority 2021, published 2024).

Key:
Type in all cases: cell-based
[1] = tested on: J774A.1 (Mouse BALB/c monocyte macrophage cell line) cells; test: LPS-induced TNF-α secretion inhibition in J774A.1 cells; conditions: J774.A1, 1 μM compound, graded compared to taurodeoxycholic acid (positive control), read-out: TNF-α production inhibition grade
How it was run: (§1)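 Grades (A >100%, B 50–100%, C 20–50%, D <20%) express cytokine suppression by 1 μM compound relative to taurodeoxycholic acid. LPS-induced TNF-α and LPS+ATP-induced IL-1β secretion were measured in murine J774A.1 macrophage cells.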

[2] = tested on: J774A.1 (Mouse BALB/c monocyte macrophage cell line) cells; test: LPS+ATP-induced IL-1β secretion inhibition in J774A.1 cells; conditions: J774.A1, 1 μM compound, graded compared to taurodeoxycholic acid (positive control), read-out: IL-1β production inhibition grade
How it was run: as §1

[3] = tested on: U937 cells (human monocytic cell line); test: Pam2CSK4-induced TNF-α secretion inhibition in PMA-differentiated U937 cells; conditions: U-937, U937 cells differentiated with PMA, read-out: TNF-α production inhibition grade (IC50)
How it was run: (§2)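 Inhibition is given as IC50 (μM) in A-D bands, using distinct thresholds for TNF-α and for IL-1β. Secretion followed Pam2CSK4 stimulation (TNF-α) or BzATP stimulation (IL-1β) of compound-pretreated, PMA-differentiated U937 macrophages.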

[4] = tested on: U937 cells (human monocytic cell line); test: BzATP-induced IL-1β secretion inhibition in PMA-differentiated U937 cells; conditions: U-937, U937 cells differentiated with PMA, read-out: IL-1β production inhibition grade (IC50)
How it was run: as §2

Structure (SMILES)	inhibition at 1 µM [1] [%]	inhibition at 1 µM [2] [%]	IC50 [3] [nM]	IC50 [4] [nM]
C[C@H](CCC(=O)NC(C)(C)CS(=O)(=O)O)[C@H]1CC[C@H]2[C@@H]3CC[C@@H]4C[C@H](O)CC[C@]4(C)[C@H]3CC[C@]12C [NC10064]	< 20	< 20	< 500	< 50
C[C@H](CCC(=O)N[C@@H](Cc1ccccc1)CS(=O)(=O)O)[C@H]1CC[C@H]2[C@@H]3CC[C@@H]4C[C@H](O)CC[C@]4(C)[C@H]3CC[C@]12C [NC10065]	< 20	> 100	1000 to 2000	100 to 200
C[C@H](CCC(=O)N[C@H](Cc1ccccc1)CS(=O)(=O)O)[C@H]1CC[C@H]2[C@@H]3CC[C@@H]4C[C@H](O)CC[C@]4(C)[C@H]3CC[C@]12C [NC10066]	< 20	> 100	1000 to 2000	< 50
CC(C)[C@@H](CS(=O)(=O)O)NC(=O)CC[C@@H](C)[C@H]1CC[C@H]2[C@@H]3CC[C@@H]4C[C@H](O)CC[C@]4(C)[C@H]3CC[C@]12C [NC10067]	< 20	< 20	1000 to 2000	≥ 200
CC(C)[C@H](CS(=O)(=O)O)NC(=O)CC[C@@H](C)[C@H]1CC[C@H]2[C@@H]3CC[C@@H]4C[C@H](O)CC[C@]4(C)[C@H]3CC[C@]12C [NC10068]	< 20	> 100	< 500	< 50
C[C@H](CCC(=O)N[C@H](CS(=O)(=O)O)c1ccccc1)[C@H]1CC[C@H]2[C@@H]3CC[C@@H]4C[C@H](O)CC[C@]4(C)[C@H]3CC[C@]12C [NC10069]	< 20	> 100	< 500	< 50
C[C@H](CCC(=O)N[C@H](c1ccccc1)[C@H](C)S(=O)(=O)O)[C@H]1CC[C@H]2[C@@H]3CC[C@@H]4C[C@H](O)CC[C@]4(C)[C@H]3CC[C@]12C [NC10070]	50 to 100	> 100	< 500	< 50
C[C@H](CCC(=O)N[C@H](Cc1ccccc1)CS(=O)(=O)O)[C@H]1CC[C@H]2[C@@H]3CC[C@@H]4C[C@H](O)CC[C@]4(C)[C@H]3CC[C@]12C [NC10071]	< 20	> 100	< 500	< 50
CC(C)[C@@H](CS(=O)(=O)O)NC(=O)CC[C@@H](C)[C@H]1CC[C@H]2[C@@H]3CC[C@@H]4C[C@H](O)CC[C@]4(C)[C@H]3CC[C@]12C [NC10072]	< 20	20 to 50	< 500	< 50
CC(C)[C@H](CS(=O)(=O)O)NC(=O)CC[C@@H](C)[C@H]1CC[C@H]2[C@@H]3CC[C@@H]4C[C@H](O)CC[C@]4(C)[C@H]3CC[C@]12C [NC10073]	< 20	50 to 100	< 500	50 to 100
C[C@H](CCC(=O)N[C@H](CS(=O)(=O)O)c1ccccc1)[C@H]1CC[C@H]2[C@@H]3CC[C@@H]4C[C@H](O)CC[C@]4(C)[C@H]3CC[C@]12C [NC10074]	< 20	> 100	< 500	50 to 100
C[C@H](CCC(=O)N1CCC[C@@H]1CS(=O)(=O)O)[C@H]1CC[C@H]2[C@@H]3CC[C@@H]4C[C@H](O)CC[C@]4(C)[C@H]3CC[C@]12C [NC10076]	< 20	> 100	≥ 2000	50 to 100
C[C@H](CCC(=O)N1CCC[C@H]1CS(=O)(=O)O)[C@H]1CC[C@H]2[C@@H]3CC[C@@H]4C[C@H](O)CC[C@]4(C)[C@H]3CC[C@]12C [NC10077]	< 20	> 100	< 500	< 50
C[C@H](CCC(=O)NC[C@H](C)S(=O)(=O)O)[C@H]1CC[C@H]2[C@@H]3CC[C@@H]4C[C@H](O)CC[C@]4(C)[C@H]3CC[C@]12C [NC10078]	< 20	> 100	< 500	< 50
C[C@H](CCC(=O)NC[C@@H](C)S(=O)(=O)O)[C@H]1CC[C@H]2[C@@H]3CC[C@@H]4C[C@H](O)CC[C@]4(C)[C@H]3CC[C@]12C [NC10079]	20 to 50	> 100	500 to 1000	< 50
C[C@H](CCC(=O)N[C@@H](CO)CS(=O)(=O)O)[C@H]1CC[C@H]2[C@@H]3CC[C@@H]4C[C@H](O)CC[C@]4(C)[C@H]3CC[C@]12C [NC10080]	< 20	> 100	500 to 1000	100 to 200
C[C@H](CCC(=O)N[C@H](CO)CS(=O)(=O)O)[C@H]1CC[C@H]2[C@@H]3CC[C@@H]4C[C@H](O)CC[C@]4(C)[C@H]3CC[C@]12C [NC10081]	> 100	> 100	500 to 1000	< 50
C[C@H](CCC(=O)N[C@@H]1CCCC[C@@H]1S(=O)(=O)O)[C@H]1CC[C@H]2[C@@H]3CC[C@@H]4C[C@H](O)CC[C@]4(C)[C@H]3CC[C@]12C [NC10082]	> 100	> 100	< 500	< 50
C[C@H](CCC(=O)N[C@H]1CCCC[C@H]1S(=O)(=O)O)[C@H]1CC[C@H]2[C@@H]3CC[C@@H]4C[C@H](O)CC[C@]4(C)[C@H]3CC[C@]12C [NC10083]	> 100	> 100	500 to 1000	< 50
C[C@H](CCC(=O)N[C@@H](C)CS(=O)(=O)O)[C@H]1CC[C@H]2[C@@H]3CC[C@@H]4C[C@H](O)CC[C@]4(C)[C@H]3CC[C@]12C [NC10084]	< 20	< 20	< 500	≥ 200
C[C@H](CS(=O)(=O)O)NC(=O)CC[C@@H](C)[C@H]1CC[C@H]2[C@@H]3CC[C@@H]4C[C@H](O)CC[C@]4(C)[C@H]3CC[C@]12C [NC10085]	< 20	< 20	≥ 2000	≥ 200
CC(C)C[C@@H](CS(=O)(=O)O)NC(=O)CC[C@@H](C)[C@H]1CC[C@H]2[C@@H]3CC[C@@H]4C[C@H](O)CC[C@]4(C)[C@H]3CC[C@]12C [NC10086]	< 20	< 20	< 500	≥ 200
CC(C)C[C@H](CS(=O)(=O)O)NC(=O)CC[C@@H](C)[C@H]1CC[C@H]2[C@@H]3CC[C@@H]4C[C@H](O)CC[C@]4(C)[C@H]3CC[C@]12C [NC10087]	> 100	> 100	500 to 1000	< 50
C[C@H](CCC(=O)NC1(CS(=O)(=O)O)CC1)[C@H]1CC[C@H]2[C@@H]3CC[C@@H]4C[C@H](O)CC[C@]4(C)[C@H]3CC[C@]12C [NC10088]	20 to 50	< 20	< 500	≥ 200
C[C@H](CCC(=O)N1CC[C@H](S(=O)(=O)O)C1)[C@H]1CC[C@H]2[C@@H]3CC[C@@H]4C[C@H](O)CC[C@]4(C)[C@H]3CC[C@]12C [NC10089]	< 20	20 to 50	< 500	≥ 200
C[C@H](CCC(=O)N1CC[C@@H](S(=O)(=O)O)C1)[C@H]1CC[C@H]2[C@@H]3CC[C@@H]4C[C@H](O)CC[C@]4(C)[C@H]3CC[C@]12C [NC10090]	< 20	< 20	500 to 1000	≥ 200
C[C@H](CCC(=O)N(CCN(C)C)CCS(=O)(=O)O)[C@H]1CC[C@H]2[C@@H]3CC[C@@H]4C[C@H](O)CC[C@]4(C)[C@H]3CC[C@]12C [NC10091]	> 100	> 100	500 to 1000	< 50
C[C@H](CCC(=O)NCCC(=O)O)[C@H]1CC[C@H]2[C@@H]3[C@H](O)C[C@@H]4C[C@H](O)CC[C@]4(C)[C@H]3C[C@H](O)[C@]12C [NC20002]	50 to 100	50 to 100	≥ 2000	100 to 200
C[C@H](CCC(=O)N(C)CCS(=O)(=O)O)[C@H]1CC[C@H]2[C@@H]3[C@H](O)C[C@@H]4C[C@H](O)CC[C@]4(C)[C@H]3C[C@H](O)[C@]12C [NC20004]	< 20	> 100	500 to 1000	< 50
C[C@H](CCC(=O)N(CCS(=O)(=O)O)Cc1ccccc1)[C@H]1CC[C@H]2[C@@H]3[C@H](O)C[C@@H]4C[C@H](O)CC[C@]4(C)[C@H]3C[C@H](O)[C@]12C [NC20005]	< 20	> 100	500 to 1000	50 to 100
